These results are taken from publication PMC6213047, “Design of Antibacterial Agents: Alkyl Dihydroxybenzoates against Xanthomonas citri subsp. citri” (International Journal of Molecular Sciences, 2018).

Some results are limits rather than exact numbers.

The test system of the first series is X. citri subsp. citri strain 306 (IBSBF 1594). Put plainly: MBC, REMA plates replicated to Petri dishes. In kind it is cell-based, Xanthomonas citri subsp. citri. Conditions: Xanthomonas citri; Petri dishes from REMA plates, 29 °C, 24 to 48 h; read-out: MBC. How it is done:
The minimal bactericidal concentration (MBC) was determined by observing the bacterial growth in Petri dishes transferred from the REMA plates.
(§1) The antibacterial activity of alkyl dihydroxybenzoates and the determination of minimum inhibition concentration (MIC) were performed by the fluorimetric method Resazurin Microtiter Assay (REMA) with some modifications. An overnight culture of X. citri subsp. citri strain 306 (IBSBF 1594) was grown in 20 mL in Nitrogen Yeast Glycerol (NYG) at 29 °C in constant agitation of 180–200 rpm. After 12 h, the Xcc inoculum was dispersed in NYG medium and distributed into a 96 well microtiter plate to a final volume of 100 μL per well (10^5 CFU per well). Stock solutions of tested compounds at 10 mg mL^−1 were prepared in dimethyl sulfoxide (DMSO) and dispersed in NYG medium to obtain 1% DMSO and the final compound concentration range of 0.78–100 μg mL^−1. The negative control was constituted of 100 μL culture medium. In addition, the copper oxychloride was tested as a comparison to alkyl dihydroxybenzoates and kanamycin (20 μg mL^−1), which was used as a control antibiotic. The plate was subsequently incubated at 29 °C for 12 h, and 15 μg mL^−1 freshly prepared resazurin solution in water was added to each well, and the plate was incubated for 2 h. The fluorescence was determined on a Synergy H1 (BioTek, Winooski, VT, USA) microplate reader using the excitation and emission filters at wavelengths of 530 and 590 nm respectively. After the REMA assay, the minimum bactericidal concentration (CBM) assay was performed using a 96-pin stainless steel plate replicator, accurately transferring the wells from the REMA plate to Petri dishes Petri dishes were incubated in oven B.O.D. at 29 °C for 24 to 48 h. The experiments were performed in triplicate.
For `CCCCCCCCOC(=O)c1cc(O)ccc1O` [Compound 17], the MBC was > 100 µg/mL.

As to `CCCCCCCCCOC(=O)c1cc(O)ccc1O` [Compound 18], the minimum bactericidal concentration (MBC) was > 100 µg/mL.

For the compound `CCCCCCCCCCOC(=O)c1cc(O)ccc1O` [Compound 19], the MBC was > 100 µg/mL.

As for `CCCCCCCCCCCCOC(=O)c1cc(O)ccc1O` [Compound 20], the MBC is > 100 µg/mL.

With `CC(C)OC(=O)c1cc(O)ccc1O` [Compound 21], the MBC was > 100 µg/mL.

`O=C(OC1CCCC1)c1cc(O)ccc1O` [Compound 22]: the minimum bactericidal concentration (MBC) came out at 100 µg/mL.

`O=C(OC1CCCCC1)c1cc(O)ccc1O` [Compound 23]: the minimal bactericidal concentration (MBC) is 100 µg/mL.

As to `O=C(OCCc1ccccc1)c1cc(O)ccc1O` [Compound 24], the MBC worked out at 100 µg/mL.

Take `CCOC(=O)c1ccc(O)c(O)c1` [Compound 25]: the MBC is > 100 µg/mL.

Take `CCCCOC(=O)c1ccc(O)c(O)c1` [Compound 26]: the minimal bactericidal concentration (MBC) is > 100 µg/mL.

Take `CCCCCCOC(=O)c1ccc(O)c(O)c1` [Compound 27]: the MBC worked out at 50 µg/mL.

As for `CCCCCCCCOC(=O)c1ccc(O)c(O)c1` [Compound 29], the minimum bactericidal concentration (MBC) was determined as 50 µg/mL.

As for `CCCCCCCCCOC(=O)c1ccc(O)c(O)c1` [Compound 30], the minimum bactericidal concentration (MBC) was 50 µg/mL.

Consider `CCCCCCCCCCCCOC(=O)c1ccc(O)c(O)c1` [Compound 32], for which the minimal bactericidal concentration (MBC) was > 100 µg/mL.

As for `CC(C)OC(=O)c1ccc(O)c(O)c1` [Compound 33], the MBC is > 100 µg/mL.

Take `O=C(OC1CCCC1)c1ccc(O)c(O)c1` [Compound 34]: the MBC was > 100 µg/mL.

With `O=C(OC1CCCCC1)c1ccc(O)c(O)c1` [Compound 35], the MBC was > 100 µg/mL.

Take `O=C(OCCc1ccccc1)c1ccc(O)c(O)c1` [Compound 36]: the MBC was determined as 100 µg/mL.

Another series shares this test system. Put plainly: MIC by Resazurin Microtiter Assay (REMA). Conditions: Xanthomonas citri, 12 h, REMA, NYG medium, 29 °C, read-out: MIC. It is filed as cell-based, Xanthomonas citri subsp. citri. How it is done: The antibacterial potential of carboxylic acids and their esters were compared to copper oxychloride (a commercial active often used to combat citrus canker). Minimal inhibitory concentration (MIC) values were determined by REMA assay, which measures cellular respiratory activity.
as §1
(Alamar Blue is a resazurin reagent that responds to reducing activity.)
For the compound `CCCCCCCCOC(=O)c1cc(O)ccc1O` [Compound 17], the MIC is > 100 µg/mL.

For `CCCCCCCCCOC(=O)c1cc(O)ccc1O` [Compound 18], the minimum inhibitory concentration (MIC) is > 100 µg/mL.

In the case of `CCCCCCCCCCOC(=O)c1cc(O)ccc1O` [Compound 19], the minimal inhibitory concentration (MIC) was > 100 µg/mL.

On to `CCCCCCCCCCCCOC(=O)c1cc(O)ccc1O` [Compound 20], for which the minimal inhibitory concentration (MIC) was > 100 µg/mL.

For the compound `CC(C)OC(=O)c1cc(O)ccc1O` [Compound 21], the minimal inhibitory concentration (MIC) was > 100 µg/mL.

Turning to `O=C(OC1CCCC1)c1cc(O)ccc1O` [Compound 22], the MIC was found to be 83.5 µg/mL.

As to `O=C(OC1CCCCC1)c1cc(O)ccc1O` [Compound 23], the minimum inhibitory concentration (MIC) is 90.4 µg/mL.

For `O=C(OCCc1ccccc1)c1cc(O)ccc1O` [Compound 24], the MIC worked out at 59.7 µg/mL.

Consider `CCOC(=O)c1ccc(O)c(O)c1` [Compound 25], for which the minimum inhibitory concentration (MIC) is > 100 µg/mL.

On to `CCCCOC(=O)c1ccc(O)c(O)c1` [Compound 26], for which the minimum inhibitory concentration (MIC) is > 100 µg/mL.

Regarding `CCCCCCOC(=O)c1ccc(O)c(O)c1` [Compound 27], the minimum inhibitory concentration (MIC) was determined as 44.4 µg/mL.

With `CCCCCCCCOC(=O)c1ccc(O)c(O)c1` [Compound 29], the minimal inhibitory concentration (MIC) stood at 31.2 µg/mL.

For the compound `CCCCCCCCCOC(=O)c1ccc(O)c(O)c1` [Compound 30], the MIC was determined as 26.7 µg/mL.

Regarding `CCCCCCCCCCCCOC(=O)c1ccc(O)c(O)c1` [Compound 32], the MIC was > 100 µg/mL.

`CC(C)OC(=O)c1ccc(O)c(O)c1` [Compound 33]: the minimum inhibitory concentration (MIC) was > 100 µg/mL.

Consider `O=C(OC1CCCC1)c1ccc(O)c(O)c1` [Compound 34], for which the minimum inhibitory concentration (MIC) was > 100 µg/mL.

With `O=C(OC1CCCCC1)c1ccc(O)c(O)c1` [Compound 35], the minimum inhibitory concentration (MIC) was > 100 µg/mL.

As to `O=C(OCCc1ccccc1)c1ccc(O)c(O)c1` [Compound 36], the MIC is < 100 µg/mL.

Staying with this series, now noted: Xanthomonas citri, 12 h, REMA, NYG medium, 29 °C, read-out: MIC in μM.
As to `CCCCCCCCOC(=O)c1cc(O)ccc1O` [Compound 17], the MIC is > 375 µM.

In the case of `CCCCCCCCCOC(=O)c1cc(O)ccc1O` [Compound 18], the MIC is > 357 µM.

For the compound `CCCCCCCCCCOC(=O)c1cc(O)ccc1O` [Compound 19], the minimum inhibitory concentration (MIC) is > 340 µM.

As for `CCCCCCCCCCCCOC(=O)c1cc(O)ccc1O` [Compound 20], the MIC is > 310 µM.

For the compound `CC(C)OC(=O)c1cc(O)ccc1O` [Compound 21], the minimum inhibitory concentration (MIC) is > 510 µM.

For `O=C(OC1CCCC1)c1cc(O)ccc1O` [Compound 22], the MIC came out at 375 µM.

As for `O=C(OC1CCCCC1)c1cc(O)ccc1O` [Compound 23], the MIC is 382 µM.

For the compound `O=C(OCCc1ccccc1)c1cc(O)ccc1O` [Compound 24], the minimal inhibitory concentration (MIC) was 231 µM.

On to `CCOC(=O)c1ccc(O)c(O)c1` [Compound 25], for which the MIC is > 549 µM.

`CCCCOC(=O)c1ccc(O)c(O)c1` [Compound 26]: the MIC is > 475 µM.

For the compound `CCCCCCOC(=O)c1ccc(O)c(O)c1` [Compound 27], the MIC came out at 186 µM.

In the case of `CCCCCCCCOC(=O)c1ccc(O)c(O)c1` [Compound 29], the MIC was found to be 117 µM.

With `CCCCCCCCCOC(=O)c1ccc(O)c(O)c1` [Compound 30], the minimal inhibitory concentration (MIC) worked out at 95 µM.

As for `CCCCCCCCCCCCOC(=O)c1ccc(O)c(O)c1` [Compound 32], the MIC was > 310 µM.

`CC(C)OC(=O)c1ccc(O)c(O)c1` [Compound 33]: the MIC is > 510 µM.

Turning to `O=C(OC1CCCC1)c1ccc(O)c(O)c1` [Compound 34], the minimum inhibitory concentration (MIC) was > 450 µM.

Regarding `O=C(OC1CCCCC1)c1ccc(O)c(O)c1` [Compound 35], the MIC is > 423 µM.

In the case of `O=C(OCCc1ccccc1)c1ccc(O)c(O)c1` [Compound 36], the MIC was 345 µM.

Tested on in another series: not listed separately
Put plainly: Partition coefficient log Po/w by HPLC (OECD 117). In kind it is physicochemical. Conditions: HPLC method, OECD 117, methanol:water 3:1. How it is done:
The analyses were performed with the use of an isocratic flow in methanol: water (3:1) at 1.0 mL min^−1. We injected 20.0 μL and analyses were performed at 254 nm. We used as reference compounds thiourea, phenol, acetophenone, benzoic acid, benzene, toluene, biphenyl, fluoranthene and triphenylamine in order to construct the curve log K × log Po/w. The lipophilicity of alkyl dihydroxybenzoates was determined from their retention times and interpolation in linearity curve log K × log Po/w. We performed the analyses in duplicate.
With `CCCCCCCCOC(=O)c1cc(O)ccc1O` [Compound 17], the chromatographic logP came out at 5.2.

In turn, `CCCCCCCCCOC(=O)c1cc(O)ccc1O` [Compound 18] gave a chromatographic logP of 5.7.

`CCCCCCCCCCOC(=O)c1cc(O)ccc1O` [Compound 19] showed a chromatographic logP of 6.3.

`CCCCCCCCCCCCOC(=O)c1cc(O)ccc1O` [Compound 20] showed a chromatographic logP of 6.8.

Consider `CC(C)OC(=O)c1cc(O)ccc1O` [Compound 21], for which the chromatographic logP came to 2.2.

On to `O=C(OC1CCCC1)c1cc(O)ccc1O` [Compound 22], for which the chromatographic logP came to 3.

Compound `O=C(OC1CCCCC1)c1cc(O)ccc1O` [Compound 23] registered a chromatographic logP of 3.5.

`O=C(OCCc1ccccc1)c1cc(O)ccc1O` [Compound 24] had a chromatographic logP of 3.1.

`CCOC(=O)c1ccc(O)c(O)c1` [Compound 25] came in with a chromatographic logP of 1.7.

On to `CCCCOC(=O)c1ccc(O)c(O)c1` [Compound 26], for which the chromatographic logP was found to be 2.6.

Compound `CCCCCCOC(=O)c1ccc(O)c(O)c1` [Compound 27] gave a chromatographic logP of 3.7.

In turn, `CCCCCCCCOC(=O)c1ccc(O)c(O)c1` [Compound 29] came in with a chromatographic logP of 4.9.

Turning to `CCCCCCCCCOC(=O)c1ccc(O)c(O)c1` [Compound 30], the chromatographic logP was found to be 5.5.

Compound `CCCCCCCCCCCCOC(=O)c1ccc(O)c(O)c1` [Compound 32] came in with a chromatographic logP of 6.9.

In turn, `CC(C)OC(=O)c1ccc(O)c(O)c1` [Compound 33] came in with a chromatographic logP of 1.4.

In the case of `O=C(OC1CCCC1)c1ccc(O)c(O)c1` [Compound 34], the chromatographic logP amounted to 2.2.

Consider `O=C(OC1CCCCC1)c1ccc(O)c(O)c1` [Compound 35], for which the chromatographic logP was determined as 2.7.

Take `O=C(OCCc1ccccc1)c1ccc(O)c(O)c1` [Compound 36]: the chromatographic logP was found to be 2.4.

Usually MBC stands for the lowest tested concentration that kills the bacteria rather than only halting them. One may read the MIC as the least concentration at which growth counts as inhibited. As a reminder, the chromatographic logP is a lipophilicity value derived from retention on a column. Read a low chromatographic logP as lower lipophilicity.
